Counter-ions that a name gives are not always drawn.
Legend:
[1] = tested on: ZR-75-1 Tam1; assay: drug sensitivity score (DSS) (DSS (dimensionless)); higher = more sensitive; extreme values may be limits of the assay; settings: 4-OH-tamoxifen in medium 1 µM; 72 h
In short: (§1)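 Drug sensitivity score, relative IC50 as the curve midpoint, and top-dose inhibition were derived from logistic dose–response fits in the Breeze pipeline. These fits used CellTiter-Glo viability, read on a PHERAstar and normalised to vehicle-only and positive controls. Breast cancer cell lines and resistant derivatives had been incubated for 72 h at 37 °C in 384-well plates holding library drugs at five concentrations spanning a 10 000-fold range. Resistant lines were grown in medium with 1 μM of the selecting drug.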

[2] = tested on: BT-474 Tam1; assay: as above; settings: 4-OH-tamoxifen in medium 1 µM; 72 h
In short: as §1

[3] = tested on: ZR-75-1; assay: as above; settings: 72 h
In short: as §1

[4] = tested on: BT-474 Tam2; assay: as above; settings: 4-OH-tamoxifen in medium 1 µM; 72 h
In short: as §1

[5] = tested on: BT-474; assay: as above; settings: 72 h
In short: as §1

[6] = tested on: ZR-75-1 Tam2; assay: as above; settings: 4-OH-tamoxifen in medium 1 µM; 72 h
In short: as §1

[7] = tested on: T-47D Tam2; assay: as above; settings: 4-OH-tamoxifen in medium 1 µM; 72 h
In short: as §1

[8] = tested on: MCF-7 Tam1; assay: as above; settings: 4-OH-tamoxifen in medium 1 µM; 72 h
In short: as §1

[9] = tested on: T-47D Tam1; assay: as above; settings: 4-OH-tamoxifen in medium 1 µM; 72 h
In short: as §1

[10] = tested on: T-47D; assay: as above; settings: 72 h
In short: as §1

[11] = tested on: MCF-7; assay: as above; settings: 72 h
In short: as §1

[12] = tested on: ZR-75-1 Tam1; assay: relative IC50 (midpoint of fitted logistic curve, plateau may be below 50% inhibition; CellTiter-Glo viability); higher = less potent; settings: 4-OH-tamoxifen in medium 1 µM; 72 h
In short: as §1

[13] = tested on: BT-474 Tam1; assay: as above; settings: 4-OH-tamoxifen in medium 1 µM; 72 h
In short: as §1

[14] = tested on: ZR-75-1; assay: as above; settings: 72 h
In short: as §1

[15] = tested on: BT-474 Tam2; assay: as above; settings: 4-OH-tamoxifen in medium 1 µM; 72 h
In short: as §1

[16] = tested on: BT-474; assay: as above; settings: 72 h
In short: as §1

[17] = tested on: ZR-75-1 Tam2; assay: as above; settings: 4-OH-tamoxifen in medium 1 µM; 72 h
In short: as §1

[18] = tested on: T-47D Tam2; assay: as above; settings: 4-OH-tamoxifen in medium 1 µM; 72 h
In short: as §1

[19] = tested on: MCF-7 Tam1; assay: as above; settings: 4-OH-tamoxifen in medium 1 µM; 72 h
In short: as §1

[20] = tested on: T-47D Tam1; assay: as above; settings: 4-OH-tamoxifen in medium 1 µM; 72 h
In short: as §1

[21] = tested on: T-47D; assay: as above; settings: 72 h
In short: as §1

[22] = tested on: MCF-7; assay: as above; settings: 72 h
In short: as §1

Compound | drug sensitivity score [1] | drug sensitivity score [2] | drug sensitivity score ([3]; 4-OH-tamoxifen in medium 0 µM) | drug sensitivity score ([3]; 4-OH-tamoxifen in medium 1 µM) | drug sensitivity score [4] | drug sensitivity score ([5]; 4-OH-tamoxifen in medium 0 µM) | drug sensitivity score ([5]; 4-OH-tamoxifen in medium 1 µM) | drug sensitivity score [6] | drug sensitivity score [7] | drug sensitivity score [8] | drug sensitivity score [9] | drug sensitivity score ([10]; 4-OH-tamoxifen in medium 0 µM) | drug sensitivity score ([10]; 4-OH-tamoxifen in medium 1 µM) | drug sensitivity score ([11]; 4-OH-tamoxifen in medium 0 µM) | drug sensitivity score ([11]; 4-OH-tamoxifen in medium 1 µM) | relative IC50 [12] [nM] | relative IC50 [13] [nM] | relative IC50 ([14]; 4-OH-tamoxifen in medium 0 µM) [nM] | relative IC50 ([14]; 4-OH-tamoxifen in medium 1 µM) [nM] | relative IC50 [15] [nM] | relative IC50 ([16]; 4-OH-tamoxifen in medium 0 µM) [nM] | relative IC50 ([16]; 4-OH-tamoxifen in medium 1 µM) [nM] | relative IC50 [17] [nM] | relative IC50 [18] [nM] | relative IC50 [19] [nM] | relative IC50 [20] [nM] | relative IC50 ([21]; 4-OH-tamoxifen in medium 0 µM) [nM] | relative IC50 ([21]; 4-OH-tamoxifen in medium 1 µM) [nM] | relative IC50 ([22]; 4-OH-tamoxifen in medium 0 µM) [nM] | relative IC50 ([22]; 4-OH-tamoxifen in medium 1 µM) [nM]
Cc1ccc([N+](=O)[O-])cc1S(=O)(=O)N(C)/N=C/c1cnc2ccc(Br)cn12 [PIK-75 (HCl)] | 14.9 | 29.8 | 16.9 | 16.7 | 26.8 | 21.2 | 27.2 | 18.9 | 20.5 | 22.6 | 25.1 | 21.8 | 15.3 | 22.3 | 26.4 | 309 | 31.6 | 133 | 94.5 | 58.7 | 148 | 48.6 | 108 | 82.6 | 50.5 | 48.3 | 33.2 | 81.3 | 33.2 | 30.5
O=C1CN2Cc3c(ccc(Cl)c3Cl)N=C2N1 [Anagrelide] | 0 | 0 | 0 | 0 | 0 | 0 | 0 | 0 | 0 | 0 | 0 | 0 | 0 | 0 | 0 | > 10000 | > 10000 | > 10000 | > 10000 | > 10000 | > 10000 | > 10000 | > 10000 | > 10000 | > 10000 | > 10000 | > 10000 | > 10000 | > 10000 | > 10000
O=C(Nc1cccnc1)N1CCC(Cc2cccc(Oc3ccc(C(F)(F)F)cn3)c2)CC1 [PF-3845] | 18.7 | 23.7 | 10.2 | 19.7 | 20.4 | 18.1 | 21.2 | 18.8 | 13.7 | 9.98 | 17.5 | 11.6 | 10.7 | 16.5 | 19.2 | 218 | 102 | 725 | 179 | 187 | 245 | 157 | 233 | 429 | 1970 | 295 | 278 | 3620 | 161 | 140
CN(C)c1nc(N(C)C)nc(N(C)C)n1 [Altretamine] | 0 | 0 | 0 | 0 | 0 | 0 | 0 | 0 | 0 | 0 | 2.61 | 0 | 0.283 | 0 | 0.0496 | > 10000 | > 10000 | > 10000 | > 10000 | > 10000 | > 10000 | > 10000 | > 10000 | > 10000 | > 10000 | 3370 | > 10000 |  | > 10000 | 
Cc1c(CN2CCN(C(=O)[C@H](C)O)CC2)sc2c(N3CCOCC3)nc(-c3cnc(N)nc3)nc12 [GDC-0980] | 13.5 | 18.3 | 16.5 | 11.8 | 15.1 | 13.5 | 18.4 | 14.9 | 12.4 | 9.79 | 15.3 | 14.7 | 12.1 | 17.4 | 15.9 | 178 | 154 | 86.5 | 145 | 303 | 137 | 170 | 160 | 212 | 226 | 117 | 199 | 390 | 123 | 146
CN(C)/N=N/c1[nH]cnc1C(N)=O [Dacarbazine] | 0 | 0 | 0 | 0 | 0 | 0 | 0 | 0 | 0 | 0 | 0 | 0 | 0 | 0 | 0.0214 | > 10000 | > 10000 | > 10000 | > 10000 | > 10000 | > 10000 | > 10000 | > 10000 | > 10000 | > 10000 | > 10000 | > 10000 | > 10000 | > 10000 | 
N.N.[Cl][Pt][Cl] [Cisplatin] | 0 | 0 | 0 | 0 | 0 | 0 | 0 | 0 | 0 | 0 | 0 | 0 | 0 | 0 | 0 | > 10000 | > 10000 | > 10000 | > 10000 | > 10000 | > 10000 | > 10000 | > 10000 | > 10000 | > 10000 | > 10000 | > 10000 | > 10000 | > 10000 | > 10000
COc1ccc(-c2cc3c(C)nc(N)nc3n([C@H]3CC[C@H](OCCO)CC3)c2=O)cn1 | 16.3 | 22.7 | 19 | 17 | 19.5 | 16.5 | 24.3 | 24 | 14.9 | 13.2 | 18.1 | 18.6 | 15.4 | 20.2 | 16.4 | 208 | 121 | 102 | 102 | 175 | 297 | 76.6 | 52.5 | 305 | 194 | 188 | 184 | 332 | 77.5 | 173
COc1c2occc2cc2ccc(=O)oc12 [Methoxsalen] | 0 | 0 | 0 | 0 | 0 | 0 | 0 | 0 | 0 | 0 | 0 | 0 | 0 | 0 | 0 | > 10000 | > 10000 | > 10000 | > 10000 | > 10000 | > 10000 | > 10000 | > 10000 | > 10000 | > 10000 | > 10000 | > 10000 | > 10000 | > 10000 | > 10000
O=NN(CCCl)C(=O)NCCCl [Carmustine] | 0 | 0 | 0 | 0 | 0 | 0 | 0 | 0 | 0 | 0 | 0 | 0 | 0 | 0 | 0 | > 10000 | > 10000 | > 10000 | > 10000 | > 10000 | > 10000 | > 10000 | > 10000 | > 10000 | > 10000 | > 10000 | > 10000 | > 10000 | > 10000 | > 10000
Cc1cccc(-c2nn3c(c2-c2ccnc4ccc(C(N)=O)cc24)CCC3)n1 | 0 | 0 | 0 | 0 | 0 | 0 | 0 | 0 | 0 | 0 | 0 | 0 | 0 | 0 | 0.246 | > 1000 | > 1000 | > 1000 | > 1000 | > 1000 | > 1000 | > 1000 | > 1000 | > 1000 | > 1000 | > 1000 | > 1000 | > 1000 | > 1000 | 
Nc1cc(C(F)(F)F)c(-c2cc(N3CCOCC3)nc(N3CCOCC3)n2)cn1 [Buparlisib (BKM-120)] | 7.01 | 9.32 | 6.24 | 5.88 | 8.94 | 5.66 | 11.1 | 7.44 | 8.09 | 4.41 | 9.5 | 9.27 | 7.4 | 10.8 | 9.9 | 710 | 1350 | 990 | 931 | 1400 | 1730 | 870 | 963 | 1090 | 1230 | 687 | 931 | 1520 | 561 | 622
C[C@]12CC[C@@H]3c4ccc(OC(=O)N(CCCl)CCCl)cc4CC[C@H]3[C@@H]1CC[C@@H]2O [Estramustine] | 0 | 0 | 0 | 0 | 0 | 0 | 0 | 0 | 0 | 0 | 0 | 0 | 0 | 0 | 0 | > 990000 | > 990000 | > 990000 | > 990000 | > 990000 | > 990000 | > 990000 | > 990000 | > 990000 | > 990000 | > 990000 | > 990000 | > 990000 | > 990000 | > 990000
O=C1CCC(N2C(=O)c3ccccc3C2=O)C(=O)N1 (centres undefined) [Thalidomide] | 0 | 0 | 0 | 0.0754 | 0 | 0 | 0 | 0 | 0 | 0 | 0 | 0 | 0 | 0 | 0 | > 10000 | > 10000 | > 10000 |  | > 10000 | > 10000 | > 10000 | > 10000 | > 10000 | > 10000 | > 10000 | > 10000 |  | > 10000 | > 10000
O=C(O)CC[C@H]1CC[C@@](c2cc(F)ccc2F)(S(=O)(=O)c2ccc(Cl)cc2)CC1 [MK-0752] | 0 | 0 | 0 | 0 | 0 | 0 | 0 | 0 | 0 | 0 | 0 | 0 | 0 | 0 | 0 | > 1000 | > 1000 | > 1000 | > 1000 | > 1000 | > 1000 | > 1000 | > 1000 | > 1000 | > 1000 | > 1000 | > 1000 | > 1000 | > 1000 | > 1000
